Assay results from USRE39707E1, “Camptothecin derivatives” (Catholic Healthcare West, priority 2001, dated 2007).

What was measured:
HCT116 = assay: Cell colony formation assay, HCT116 cells; format: cell-based, human; conditions: 72 hours drug exposure
Method: (§1) This example provides directions for growing cells and testing compounds of the invention for their effect on the growth of the cells. All cells were purchased from DCIDC Tumor Repository, NCI, NIH.
The cells were incubated in a CO2 incubator at 37° C. for 5 hours for attachment to the bottom of Petri dishes. Drugs were made fresh in medium at ten times the final concentration, and then 0.3 ml of this stock solution was added to the 2.7 ml of medium in the dish. The cells were then incubated with drugs for 72 hours at 37° C. At the end of the incubation the drug-containing media were decanted, the dishes were rinsed with 4 ml of Hank's Balance Salt Solution (HBSS), 5 ml of fresh medium was added, and the dishes were returned to the incubator for colony formation. The cell colonies were counted using colony counter after incubation for 7 days for HCT116 cells and PC-3 cells and 8 days for VM46 cells, respectively.

C3H/HeJ mice = conditions: maximum tolerated dose at day 40, C3H/HeJ mice
Method: This example provides directions for performing in vivo toxicity tests of the compounds of the invention on C3H/HeJ mice.
Acute toxicities of the compounds of this invention are evaluated on C3H/HeJ mice (body weight 18-22 g). The MTD40 (maximum tolerated dose at day 40) values were determined by the standard procedure described by Gad and Chengelis (see, for example, “Acute Toxicology Testing,” 2nd Ed., Shayne O. Gad and Christopher P. Chengelis, pp. 186-195 (Academic Press)). In the consecutive type studies, 2 mice were dosed at low and moderate doses of 40 and 100 mg/kg. If no severe and irreversible toxicity (euthanasia is required) occurs at these doses, a new pair of animals was initiated at 180 mg/kg, which is 1.8 times higher than 100 mg/kg. Sequential dosages (about 3 doses on 3 pairs of animals, i.e. 2 mice for each drug dose) were increased by a factor of 1.8 until severe and irreversible toxicity (euthanasia is required) occurred. Then another pair of animals was initiated at the highest nonlethal dosage, and successive dosages were increased by a factor of 1.15. The result of this exercise was two dosages, one apparently nonlethal and the other lethal if severe and irreversible toxicity occurs and euthanasia is required, separated by a factor of 1.15. Six mice were dosed at each dosage. If no severe and irreversible toxicity occurred at the lower dosage and at least one with severe and irreversible toxicity occurred at the higher dose, then the lower dose was considered to be the MTD. The compounds of this invention were administered to C3H/HeJ mice by intraperitoneal injection. Drug toxicity was evaluated on mice checked daily for 45 days.

VM46 = assay: Cell colony formation assay, VM46 cells; format: cell-based; conditions: 72 hours drug exposure
Method: as §1
(§2) Four hundred cells (HCT 116, PC-3, NCI/ADR-RES: human breast cancer cells) or five hundred cells (VM46) were plated in 60 mm Petri dishes containing 2.7 ml of medium (modified McCoy's 5a medium) containing 10% fetal bovine serum and 100 units/ml penicillin and […] streptomycin. The cells were incubated in a CO2 incubator at 37° C. for 5 hours for attachment to the bottom of Petri dishes. Drugs were made fresh in medium at ten times the final concentration, and then 0.3 ml of this stock solution was added to the 2.7 ml of medium in the dish. The cells were then incubated with drugs for 72 hours at 37° C. At the end of the incubation the drug-containing media were decanted, the dishes were rinsed with 4 ml of Hank's Balance Salt Solution (HBSS), 5 ml of fresh medium was added, and the dishes were returned to the incubator for colony formation. The cell colonies were counted using colony counter after incubation for 7 days for HCT116 cells and PC-3 cells and 8 days for VM46 cells, respectively.
(§3) Values of ID50 (the drug concentration producing 50% inhibition of colony formation) may be determined for each tested compound. The directions described in this example may be used in other cells, such as DU-145.

[1] = tested on: MTG-B mouse mammary Adenocarcinoma; assay: In vivo efficacy in C3H/HeJ mice bearing MTG-B tumors; conditions: for T (Surviving days after treatment of MTG-B mouse mammary Adenocarcinoma In C3H/Hej mice): i.p., control mice survived 6 days; for CD/Taxol: ratio of extra days of survival with compound to extra days of survival with taxol, each compared to control; for T/C %: surviving days treated / surviving days control x 100%, control 6 days
Method: This example provides directions for performing in vivo efficacy tests of the compounds of the invention on C3H/HeJ mice bearing MTG-B tumors.
Studies on the compounds of this invention were performed on C3H/HeJ mice bearing […] tumors. […] Treatment was initiated at that time, with the first day of treatment designated as day 0 for calculation and plots. The mice were injected i.p. with thee drug dose levels (⅓, ½, 1×MTD) using both a single injection and the schedule of Q2D×3 (every 2 days for a total of 3 treatments at ⅓ MTD). Control groups of mice bearing 8 mm diameter tumors were treated with vehicle alone. […] When a tumor reached 1.5 g, the mouse bearing the tumor was euthanized. Surviving days measured from day 0 for mice treated with anticancer drugs (T) and surviving days measured from day 0 for control mice (C) were recorded. Tumor growth inhibition values (T/C %) were calculated using the formula T/C %=(surviving days of mice treated with an anticancer drug T/surviving days of control mice C)×100%, as shown in Table II.
The final right-hand column in Table II provides a ratio of the extra days of survival of mice treated with the compounds of the invention (compared to control) to the extra days of survival of mice treated with taxol (compared to control).

PC-3 = assay: Cell colony formation assay, PC-3 cells; format: cell-based, human; conditions: 72 hours drug exposure
Method: as §1, §2, §3

## CCC1(OC(=O)COc2ccccc2[N+](=O)[O-])C(=O)OCc2c1cc1n(c2=O)Cc2cc3ccccc3nc2-1 (stereo not shown) [Example 000411, Camptothecin-20-O-ester of 2-nitrophenoxyacetic acid]
HCT116; 1 nM
  In Vitro Efficacy: Survival (%) of HCT116: 95.13%
HCT116; 10 nM
  In Vitro Efficacy: Survival (%) of HCT116: 0%
HCT116; 100 nM
  In Vitro Efficacy: Survival (%) of HCT116: 0%
C3H/HeJ mice
  In Vivo Toxicity MTD40 (ip, mg/kg) in C3H/Hej Mice: >150 mg/kg
VM46; 1 nM
  In vitro efficacy: Survival (%) of cells line VM46: 76.87%
VM46; 10 nM
  In vitro efficacy: Survival (%) of cells line VM46: 0%
[1]
  T (Surviving days after treatment of MTG-B mouse mammary Adenocarcinoma In C3H/Hej mice): 8 days
  CD/Taxol: .7
  T/C %: 133%
PC-3; 1 nM
  In vitro efficacy: Survival (%) of cells line PC-3: 90.09%
PC-3; 5 nM
  In vitro efficacy: Survival (%) of cells line PC-3: 33.09%

## CCC1(OC(=O)COc2cccc(Cl)c2Cl)C(=O)OCc2c1cc1n(c2=O)Cc2cc3ccccc3nc2-1 (stereo not shown) [Example 000412, Camptothecin-20-O-ester of 2,3-dichlorophenoxyacetic acid]
HCT116; 1 nM
  In Vitro Efficacy: Survival (%) of HCT116: 81.36%
HCT116; 10 nM
  In Vitro Efficacy: Survival (%) of HCT116: 0%
HCT116; 100 nM
  In Vitro Efficacy: Survival (%) of HCT116: 0%
C3H/HeJ mice
  In Vivo Toxicity MTD40 (ip, mg/kg) in C3H/Hej Mice: 100 mg/kg
VM46; 1 nM
  In vitro efficacy: Survival (%) of cells line VM46: 50.72%
VM46; 10 nM
  In vitro efficacy: Survival (%) of cells line VM46: 0%
[1]
  T (Surviving days after treatment of MTG-B mouse mammary Adenocarcinoma In C3H/Hej mice): 17 days
  CD/Taxol: 3.7
  T/C %: 283%
PC-3; 1 nM
  In vitro efficacy: Survival (%) of cells line PC-3: 83.00%
PC-3; 5 nM
  In vitro efficacy: Survival (%) of cells line PC-3: 8.68%

## CCC1(OC(=O)COc2ccc(I)cc2)C(=O)OCc2c1cc1n(c2=O)Cc2cc3ccccc3nc2-1 (stereo not shown) [Example 000413, Camptothecin-20-Oester of 4-iodophenoxyacetic acid]
HCT116; 1 nM
  In Vitro Efficacy: Survival (%) of HCT116: 87.62%
HCT116; 10 nM
  In Vitro Efficacy: Survival (%) of HCT116: 0%
HCT116; 100 nM
  In Vitro Efficacy: Survival (%) of HCT116: 0%
C3H/HeJ mice
  In Vivo Toxicity MTD40 (ip, mg/kg) in C3H/Hej Mice: >150 mg/kg
VM46; 1 nM
  In vitro efficacy: Survival (%) of cells line VM46: 73.61%
VM46; 10 nM
  In vitro efficacy: Survival (%) of cells line VM46: 0%
[1]
  T (Surviving days after treatment of MTG-B mouse mammary Adenocarcinoma In C3H/Hej mice): 18 days
  CD/Taxol: 4
  T/C %: 300%
PC-3; 1 nM
  In vitro efficacy: Survival (%) of cells line PC-3: 89.51%
PC-3; 5 nM
  In vitro efficacy: Survival (%) of cells line PC-3: 33.64%

## CCC1(OC(=O)COc2ccc(F)cc2)C(=O)OCc2c1cc1n(c2=O)Cc2cc3ccccc3nc2-1 (stereo not shown) [Example 000417, camptothecin-20-O-4-fluorophenoxyacetate]
HCT116; 1 nM
  In Vitro Efficacy: Survival (%) of HCT116: 100%
HCT116; 10 nM
  In Vitro Efficacy: Survival (%) of HCT116: 0%
HCT116; 100 nM
  In Vitro Efficacy: Survival (%) of HCT116: 0%
C3H/HeJ mice
  In Vivo Toxicity MTD40 (ip, mg/kg) in C3H/Hej Mice: >150 mg/kg
VM46; 1 nM
  In vitro efficacy: Survival (%) of cells line VM46: 83.50%
VM46; 10 nM
  In vitro efficacy: Survival (%) of cells line VM46: 0%
[1]
  T (Surviving days after treatment of MTG-B mouse mammary Adenocarcinoma In C3H/Hej mice): 18 days
  CD/Taxol: 4
  T/C %: 300%
PC-3; 1 nM
  In vitro efficacy: Survival (%) of cells line PC-3: 97.65%
PC-3; 5 nM
  In vitro efficacy: Survival (%) of cells line PC-3: 61.85%

## CCC1(OC(=O)COc2ccc3c(c2)OCO3)C(=O)OCc2c1cc1n(c2=O)Cc2cc3ccccc3nc2-1 (stereo not shown) [Example 000419, Camptothecin-20-O-ester of 3,4-methylenedioxyphenoxyacetic acid]
HCT116; 1 nM
  In Vitro Efficacy: Survival (%) of HCT116: 100%
HCT116; 10 nM
  In Vitro Efficacy: Survival (%) of HCT116: 0%
HCT116; 100 nM
  In Vitro Efficacy: Survival (%) of HCT116: 0%
C3H/HeJ mice
  In Vivo Toxicity MTD40 (ip, mg/kg) in C3H/Hej Mice: 45 mg/kg
VM46; 1 nM
  In vitro efficacy: Survival (%) of cells line VM46: 75.46%
VM46; 10 nM
  In vitro efficacy: Survival (%) of cells line VM46: 0%
[1]
  T (Surviving days after treatment of MTG-B mouse mammary Adenocarcinoma In C3H/Hej mice): 12 days
  CD/Taxol: 2.0
  T/C %: 200%
PC-3; 1 nM
  In vitro efficacy: Survival (%) of cells line PC-3: 88.43%
PC-3; 5 nM
  In vitro efficacy: Survival (%) of cells line PC-3: 43.94%

## CC[C@@]1(OC(=O)CO[C@@H]2C[C@H](C)CC[C@H]2C(C)C)C(=O)OCc2c1cc1n(c2=O)Cc2cc3ccccc3nc2-1 [Example 0002031, Camptothecin-20-O-ester of (−)-menthoxyacetic acid]
HCT116; 1 nM
  In Vitro Efficacy: Survival (%) of HCT116: 100%
HCT116; 10 nM
  In Vitro Efficacy: Survival (%) of HCT116: 0%
HCT116; 100 nM
  In Vitro Efficacy: Survival (%) of HCT116: 0%
C3H/HeJ mice
  In Vivo Toxicity MTD40 (ip, mg/kg) in C3H/Hej Mice: 100 mg/kg
VM46; 1 nM
  In vitro efficacy: Survival (%) of cells line VM46: 74.84%
VM46; 10 nM
  In vitro efficacy: Survival (%) of cells line VM46: 0%
[1]
  T (Surviving days after treatment of MTG-B mouse mammary Adenocarcinoma In C3H/Hej mice): 12 days
  CD/Taxol: 2.0
  T/C %: 200%
PC-3; 1 nM
  In vitro efficacy: Survival (%) of cells line PC-3: 100%
PC-3; 5 nM
  In vitro efficacy: Survival (%) of cells line PC-3: 69.44%

## CC(=O)O[C@H]1C(=O)[C@@]2(C)[C@H]([C@H](OC(=O)c3ccccc3)[C@]3(O)C[C@H](OC(=O)[C@H](O)[C@@H](NC(=O)c4ccccc4)c4ccccc4)C(C)=C1C3(C)C)[C@]1(OC(C)=O)CO[C@@H]1C[C@@H]2O [Taxol, reference compound]
HCT116; 1 nM
  In Vitro Efficacy: Survival (%) of HCT116: 86.40%
HCT116; 10 nM
  In Vitro Efficacy: Survival (%) of HCT116: 0%
HCT116; 100 nM
  In Vitro Efficacy: Survival (%) of HCT116: 0%
C3H/HeJ mice
  In Vivo Toxicity MTD40 (ip, mg/kg) in C3H/Hej Mice: 40.6 mg/kg
VM46; 1 nM
  In vitro efficacy: Survival (%) of cells line VM46: 80.59%
VM46; 10 nM
  In vitro efficacy: Survival (%) of cells line VM46: 70.82%
[1]
  T (Surviving days after treatment of MTG-B mouse mammary Adenocarcinoma In C3H/Hej mice): 9 days
  T/C %: 150%
PC-3; 1 nM
  In vitro efficacy: Survival (%) of cells line PC-3: 82.80%
PC-3; 5 nM
  In vitro efficacy: Survival (%) of cells line PC-3: 41.36%
